# System: MV-4-11 cells
# Assay: Gene expression microarray analysis (Affymetrix PrimeView) and GSEA
# Assay type: cell-based, human
# Set-up: RFU PODN (11730768_x_at) / Fold change /veh PODN (11730768_x_at) / RFU LINC00158 (11744669_a_at) / Fold change /veh LINC00158 (11744669_a_at) / RFU DUSP10 (11751237_a_at) / Fold change /veh DUSP10 (11751237_a_at) / RFU ID3 (11757404_x_at) / Fold change /veh ID3 (11757404_x_at) / RFU PLEKHG5 (11737974_s_at) / Fold change /veh PLEKHG5 (11737974_s_at) / RFU LRRC4B (11730491_at) / Fold change /veh LRRC4B (11730491_at) / RFU GIMAP4 (11747438_a_at) / Fold change /veh GIMAP4 (11747438_a_at) / RFU KRT8 (11758183_x_at) / Fold change /veh KRT8 (11758183_x_at) / RFU CNN1 (11734310_a_at) / Fold change /veh CNN1 (11734310_a_at) / RFU VPS37D (11726825_at) / Fold change /veh VPS37D (11726825_at) / RFU C10orf10 (11716522_x_at) / Fold change /veh C10orf10 (11716522_x_at) / RFU KIR2DL2 /// KIR2DL4 /// KIR2DL5A /// KIR2DL5B /// KIR2DS1 /// KIR2DS2 /// KIR2DS3 /// KIR2DS4 /// KIR3DL3 /// KIR3DL3 /// KIR3DS1 (11738374_at) / Fold change /veh KIR2DL2 /// KIR2DL4 /// KIR2DL5A /// KIR2DL5B /// KIR2DS1 /// KIR2DS2 /// KIR2DS3 /// KIR2DS4 /// KIR3DL3 /// KIR3DL3 /// KIR3DS1 (11738374_at) / RFU C1QL1 (11718748_at) / Fold change /veh C1QL1 (11718748_at) / RFU TMPRSS4 (11747572_a_at) / Fold change /veh TMPRSS4 (11747572_a_at) / RFU HAMP (11756126_x_at) / Fold change /veh HAMP (11756126_x_at) / RFU RNFT2 (11725882_a_at) / Fold change /veh RNFT2 (11725882_a_at) / RFU NR4A2 (11747474_a_at) / Fold change /veh NR4A2 (11747474_a_at) / RFU ABCC12 (11746883_a_at) / Fold change /veh ABCC12 (11746883_a_at) / RFU TMEM136 (11760407_x_at) / Fold change /veh TMEM136 (11760407_x_at) / RFU CLDN22 /// WWC2 (11732394_at) / Fold change /veh CLDN22 /// WWC2 (11732394_at) / RFU HLA-DPB1 (11760878_x_at) / Fold change /veh HLA-DPB1 (11760878_x_at) / RFU SPINT1 (11716480_a_at) / Fold change /veh SPINT1 (11716480_a_at) / RFU GAP43 (11754022_s_at) / Fold change /veh GAP43 (11754022_s_at) / RFU A4GNT (11735810_at) / Fold change /veh A4GNT (11735810_at) / RFU PRB3 (11715151_x_at) / Fold change /veh PRB3 (11715151_x_at) / RFU TUBB4B (11761932_at) / Fold change /veh TUBB4B (11761932_at) / RFU CAPN14 (11732068_a_at) / Fold change /veh CAPN14 (11732068_a_at) / RFU TMCC2 (11721928_a_at) / Fold change /veh TMCC2 (11721928_a_at) / RFU IRGQ (11745062_a_at) / Fold change /veh IRGQ (11745062_a_at) / RFU FAM174B (11720279_a_at) / Fold change /veh FAM174B (11720279_a_at) / RFU TMPRSS4 (11748680_a_at) / Fold change /veh TMPRSS4 (11748680_a_at) / RFU FAM212B (11763350_a_at) / Fold change /veh FAM212B (11763350_a_at) / RFU PLEKHG5 (11743358_a_at) / Fold change /veh PLEKHG5 (11743358_a_at) / RFU ZSCAN30 (11745921_a_at) / Fold change /veh ZSCAN30 (11745921_a_at) / RFU CMKLR1 (11741424_a_at) / Fold change /veh CMKLR1 (11741424_a_at) / RFU LOC101060620 /// MAPK8IP1 (11723275_at) / Fold change /veh LOC101060620 /// MAPK8IP1 (11723275_at) / RFU SPTSSB (11747773_x_at) / Fold change /veh SPTSSB (11747773_x_at) / RFU PRSS12 (11739890_at) / Fold change /veh PRSS12 (11739890_at) / RFU BIN1 (11741810_x_at) / Fold change /veh BIN1 (11741810_x_at) / RFU WNT11 (11732464_a_at) / Fold change /veh WNT11 (11732464_a_at) / RFU C10orf10 (11716521_a_at) / Fold change /veh C10orf10 (11716521_a_at) / RFU C5orf56 (11738089_at) / Fold change /veh C5orf56 (11738089_at) / RFU CYB561 (11721691_x_at) / Fold change /veh CYB561 (11721691_x_at) / RFU ANKRD19P (11752326_a_at) / Fold change /veh ANKRD19P (11752326_a_at) / RFU OR2T12 /// OR2T33 /// OR2T8 (11738714_s_at) / Fold change /veh OR2T12 /// OR2T33 /// OR2T8 (11738714_s_at) / RFU VCAN (11748164_a_at) / Fold change /veh VCAN (11748164_a_at) / RFU JSRP1 (11732532_at) / Fold change /veh JSRP1 (11732532_at) / RFU KRTAP10-11 (11738290_x_at) / Fold change /veh KRTAP10-11 (11738290_x_at) / RFU MYO3A (11730013_a_at) / Fold change /veh MYO3A (11730013_a_at) / RFU EBF3 (11725865_a_at) / Fold change /veh EBF3 (11725865_a_at) / RFU CAMK2N1 (11719241_x_at) / Fold change /veh CAMK2N1 (11719241_x_at) / RFU C5orf56 (11738088_a_at) / Fold change /veh C5orf56 (11738088_a_at) / RFU OLFML3 (11715873_a_at) / Fold change /veh OLFML3 (11715873_a_at) / RFU LOC100653217 /// NTM (11731650_a_at) / Fold change /veh LOC100653217 /// NTM (11731650_a_at) / RFU MAPK11 (11762145_a_at) / Fold change /veh MAPK11 (11762145_a_at) / RFU FIZ1 (11724087_x_at) / Fold change /veh FIZ1 (11724087_x_at) / RFU OASL (11726364_x_at) / Fold change /veh OASL (11726364_x_at) / RFU SOX15 (11748057_x_at) / Fold change /veh SOX15 (11748057_x_at) / RFU CD79A (11719716_a_at) / Fold change /veh CD79A (11719716_a_at) / RFU HIST1H1D (11736915_at) / Fold change /veh HIST1H1D (11736915_at) / RFU CASKIN2 (11723855_a_at) / Fold change /veh CASKIN2 (11723855_a_at) / RFU LOC730098 (11760151_x_at) / Fold change /veh LOC730098 (11760151_x_at) / RFU OR4N2 (11742367_at) / Fold change /veh OR4N2 (11742367_at) / RFU PRRT2 (11749266_a_at) / Fold change /veh PRRT2 (11749266_a_at) / RFU SNX32 (11753110_a_at) / Fold change /veh SNX32 (11753110_a_at) / RFU CDHR5 (11726645_a_at) / Fold change /veh CDHR5 (11726645_a_at) / RFU RCAN1 (11760418_a_at) / Fold change /veh RCAN1 (11760418_a_at) / RFU FAM167A (11723789_a_at) / Fold change /veh FAM167A (11723789_a_at) / RFU FAM26E (11764081_at) / Fold change /veh FAM26E (11764081_at) / RFU ISYNA1 (11749810_s_at) / Fold change /veh ISYNA1 (11749810_s_at) / RFU ACY1 (11761880_at) / Fold change /veh ACY1 (11761880_at) / RFU 11764098_at / Fold change /veh 11764098_at / RFU SAMD14 (11745864_x_at) / Fold change /veh SAMD14 (11745864_x_at) / RFU NPB (11741838_a_at) / Fold change /veh NPB (11741838_a_at) / RFU TMPRSS6 (11731388_a_at) / Fold change /veh TMPRSS6 (11731388_a_at) / RFU KRTAP10-2 (11738614_at) / Fold change /veh KRTAP10-2 (11738614_at) / RFU ARHGAP8 /// PRR5-ARHGAP8 (11727945_x_at) / Fold change /veh ARHGAP8 /// PRR5-ARHGAP8 (11727945_x_at) / RFU KRTAP5-7 /// NADSYN1 (11734609_at) / Fold change /veh KRTAP5-7 /// NADSYN1 (11734609_at) / RFU RASL12 (11751679_a_at) / Fold change /veh RASL12 (11751679_a_at) / RFU CDKN2B (11736163_a_at) / Fold change /veh CDKN2B (11736163_a_at) / RFU PRF1 (11729649_at) / Fold change /veh PRF1 (11729649_at) / RFU, ZNF638 /// ZNF638-IT1 / Fold change vs veh, ZNF638 /// ZNF638-IT1 / RFU, PANK3 / Fold change vs veh, PANK3 / RFU, SH3YL1 / Fold change vs veh, SH3YL1 / RFU, ZEB2 / Fold change vs veh, ZEB2 / RFU, NRIP1 / Fold change vs veh, NRIP1 / RFU, PTTG1IP / Fold change vs veh, PTTG1IP / RFU, CAPN2 / Fold change vs veh, CAPN2 / RFU, MED14 / Fold change vs veh, MED14 / RFU, SNORA58 / Fold change vs veh, SNORA58 / RFU, C1orf63 / Fold change vs veh, C1orf63 / RFU, LRRFIP1 / Fold change vs veh, LRRFIP1 / RFU, NDUFAF7 / Fold change vs veh, NDUFAF7 / RFU, SLC12A2 / Fold change vs veh, SLC12A2 / RFU, IBTK / Fold change vs veh, IBTK / RFU, ESF1 / Fold change vs veh, ESF1 / Fold change vs veh, TMEM50B / RFU, TAOK1 / Fold change vs veh, TAOK1 / RFU, ACBD3 / Fold change vs veh, ACBD3 / RFU, TMA16 / Fold change vs veh, TMA16 / RFU, RWDD3 / Fold change vs veh, RWDD3 / RFU, BCAT1 / Fold change vs veh, BCAT1 / RFU, EDEM3 / Fold change vs veh, EDEM3 / RFU, TMEM33 / Fold change vs veh, TMEM33 / RFU, WDR75 / Fold change vs veh, WDR75 / RFU, AHCTF1 / Fold change vs veh, AHCTF1 / RFU, TFRC / Fold change vs veh, TFRC / RFU, ZDHHC17 / Fold change vs veh, ZDHHC17 / RFU, NOM1 / Fold change vs veh, NOM1 / RFU, ARL8B / Fold change vs veh, ARL8B / RFU, ZBTB11 / Fold change vs veh, ZBTB11 / RFU, TAMM41 / Fold change vs veh, TAMM41 / RFU, KIAA1704 /// LOC100996395 / Fold change vs veh, KIAA1704 /// LOC100996395 / RFU, ING1 / Fold change vs veh, ING1 / RFU, TRMT61B / Fold change vs veh, TRMT61B / RFU, FUBP3 / Fold change vs veh, FUBP3 / RFU, TP53 / Fold change vs veh, TP53 / RFU, TNKS2 / Fold change vs veh, TNKS2 / RFU, ZFP14 / Fold change vs veh, ZFP14 / RFU, ACTR2 / Fold change vs veh, ACTR2 / RFU, PPP3R1 / Fold change vs veh, PPP3R1 / RFU, PIK3R1 / Fold change vs veh, PIK3R1 / RFU, HNRNPA1 / Fold change vs veh, HNRNPA1 / RFU, RNF170 / Fold change vs veh, RNF170 / RFU, ZNF28 / Fold change vs veh, ZNF28 / RFU, RNGTT / Fold change vs veh, RNGTT / RFU, OGT / Fold change vs veh, OGT / RFU, BRD1 / Fold change vs veh, BRD1 / RFU, MARS / Fold change vs veh, MARS / RFU, ZNF655 / Fold change vs veh, ZNF655 / RFU, FAHD1 / Fold change vs veh, FAHD1 / RFU, BDP1 / Fold change vs veh, BDP1 / RFU, LRRCC1 / Fold change vs veh, LRRCC1 / RFU, ARID1A / Fold change vs veh, ARID1A / RFU, ZNF146 / Fold change vs veh, ZNF146 / RFU, ZNF330 / Fold change vs veh, ZNF330 / RFU, GPN3 / Fold change vs veh, GPN3 / RFU, C9orf123 / Fold change vs veh, C9orf123 / RFU, N4BP2L2 / Fold change vs veh, N4BP2L2 / RFU, ARFIP1 / Fold change vs veh, ARFIP1 / RFU, FAM179B / Fold change vs veh, FAM179B / RFU, BCL10 / Fold change vs veh, BCL10 / RFU, UHRF1BP1L / Fold change vs veh, UHRF1BP1L / RFU, BET1 / Fold change vs veh, BET1 / RFU, CNOT2 / Fold change vs veh, CNOT2 / RFU, ZNF268 / Fold change vs veh, ZNF268 / Fold change vs veh, ZNF507 / RFU, DGCR2 / Fold change vs veh, DGCR2 / RFU, WDSUB1 / Fold change vs veh, WDSUB1 / Fold change vs veh, HSP90B1 /// MIR3652 / RFU, ADSS / Fold change vs veh, ADSS / RFU, GK / Fold change vs veh, GK / RFU, ZNF148 / Fold change vs veh, ZNF148 / RFU, TAF9 / Fold change vs veh, TAF9 / RFU, SLC1A5 / Fold change vs veh, SLC1A5 / RFU, SLMO2 / Fold change vs veh, SLMO2 / RFU, ABCC4 / Fold change vs veh, ABCC4 / RFU, LOC101060439 /// RAP1B / Fold change vs veh, LOC101060439 /// RAP1B / RFU, RFX7 / Fold change vs veh, RFX7 / RFU, GTPBP10 / Fold change vs veh, GTPBP10 / RFU, CNEP1R1 / Fold change vs veh, CNEP1R1 / RFU, BIVM-ERCC5 /// ERCC5 / Fold change vs veh, BIVM-ERCC5 /// ERCC5 / RFU, ILF3 / Fold change vs veh, ILF3 / RFU 11762660_at / Fold change /veh 11762660_at / RFU VCAN (11757783_s_at) / Fold change /veh VCAN (11757783_s_at) / RFU DDX43 (11728927_at) / Fold change /veh DDX43 (11728927_at) / RFU KRT8 (11758188_x_at) / Fold change /veh KRT8 (11758188_x_at) / RFU NKD1 (11759106_at) / Fold change /veh NKD1 (11759106_at) / RFU SRD5A1 (11742802_a_at) / Fold change /veh SRD5A1 (11742802_a_at) / RFU TPSAB1 /// TPSB2 (11721975_s_at) / Fold change /veh TPSAB1 /// TPSB2 (11721975_s_at) / RFU GSTM3 (11746129_a_at) / Fold change /veh GSTM3 (11746129_a_at) / RFU IL23R (11737362_x_at) / Fold change /veh IL23R (11737362_x_at) / RFU TMEM51 (11727254_a_at) / Fold change /veh TMEM51 (11727254_a_at) / RFU PIWIL2 (11732686_x_at) / Fold change /veh PIWIL2 (11732686_x_at) / RFU ORM1 (11744905_x_at) / Fold change /veh ORM1 (11744905_x_at) / RFU CCDC152 (11743942_at) / Fold change /veh CCDC152 (11743942_at) / RFU ECM1 (11717891_a_at) / Fold change /veh ECM1 (11717891_a_at) / RFU IL23R (11748794_a_at) / Fold change /veh IL23R (11748794_a_at) / RFU TNFAIP8L3 (11732012_x_at) / Fold change /veh TNFAIP8L3 (11732012_x_at) / RFU MBOAT4 (11741988_at) / Fold change /veh MBOAT4 (11741988_at) / RFU 11764193_at / Fold change /veh 11764193_at / RFU TMEM53 (11763286_at) / Fold change /veh TMEM53 (11763286_at) / RFU MAGEB2 (11727129_at) / Fold change /veh MAGEB2 (11727129_at) / RFU TMEM200A (11744735_a_at) / Fold change /veh TMEM200A (11744735_a_at) / RFU CCDC152 (11751479_a_at) / Fold change /veh CCDC152 (11751479_a_at) / RFU FAM211A (11726209_a_at) / Fold change /veh FAM211A (11726209_a_at) / RFU RGS16 (11746705_a_at) / Fold change /veh RGS16 (11746705_a_at) / RFU VCAN (11755009_s_at) / Fold change /veh VCAN (11755009_s_at) / RFU RHOB (11743442_s_at) / Fold change /veh RHOB (11743442_s_at) / RFU RGS16 (11720943_a_at) / Fold change /veh RGS16 (11720943_a_at) / RFU RGS16 (11720944_at) / Fold change /veh RGS16 (11720944_at) / RFU, VPS4B / Fold change vs veh, VPS4B / RFU, CREB1 / Fold change vs veh, CREB1 / RFU, DNAJC13 / Fold change vs veh, DNAJC13 / RFU, GNAQ / Fold change vs veh, GNAQ / RFU, CDK5R1 / Fold change vs veh, CDK5R1 / RFU, ZRANB3 / Fold change vs veh, ZRANB3 / RFU, CUL4A / Fold change vs veh, CUL4A / RFU, CCNY / Fold change vs veh, CCNY / RFU, UFL1 / Fold change vs veh, UFL1 / RFU, COG3 / Fold change vs veh, COG3 / RFU, DIAPH2 / Fold change vs veh, DIAPH2 / RFU, SKA2 / Fold change vs veh, SKA2 / RFU, AFF3 / Fold change vs veh, AFF3 / RFU, LMF1 / Fold change vs veh, LMF1 / RFU, IPO11 / Fold change vs veh, IPO11 / RFU, DFFB / Fold change vs veh, DFFB / RFU, FOXP1 / Fold change vs veh, FOXP1 / RFU, CARD8 / Fold change vs veh, CARD8 / RFU, STRN3 / Fold change vs veh, STRN3 / RFU, ADK / Fold change vs veh, ADK / RFU, RASSF2 / Fold change vs veh, RASSF2 / RFU, WIPF1 / Fold change vs veh, WIPF1 / RFU, LARP1B / Fold change vs veh, LARP1B / RFU, RASA1 / Fold change vs veh, RASA1 / RFU, RB1 / Fold change vs veh, RB1 / RFU, PPFIA1 / Fold change vs veh, PPFIA1 / RFU, MAT2A / Fold change vs veh, MAT2A / RFU, CCT5 / Fold change vs veh, CCT5 / RFU, WDR92 / Fold change vs veh, WDR92 / RFU, CUX1 / Fold change vs veh, CUX1 / RFU, TTC7A / Fold change vs veh, TTC7A / RFU, TMEM135 / Fold change vs veh, TMEM135 / RFU, DEPTOR / Fold change vs veh, DEPTOR / RFU, CPM / Fold change vs veh, CPM / RFU, DNAJB6 / Fold change vs veh, DNAJB6 / RFU, CACNA2D3 / Fold change vs veh, CACNA2D3 / RFU, DTX4 / Fold change vs veh, DTX4 / RFU, TFCP2 / Fold change vs veh, TFCP2 / RFU, GMCL1 /// GMCL1P1 / Fold change vs veh, GMCL1 /// GMCL1P1 / RFU, AEBP2 / Fold change vs veh, AEBP2 / RFU, SNHG1 /// SNORD22 /// SNORD25 /// SNORD26 /// SNORD27 /// SNORD28 /// SNORD29 /// SNORD31 / Fold change vs veh, SNHG1 /// SNORD22 /// SNORD25 /// SNORD26 /// SNORD27 /// SNORD28 /// SNORD29 /// SNORD31 / Fold change (Aza/veh), C12orf56 (ProbeSet 11735607_a_at) / Fold change (ACY-1035/veh), C12orf56 (ProbeSet 11735607_a_at) / Fold change (Aza/veh), FGFR1OP (ProbeSet 11751329_s_at) / Fold change (ACY-1035/veh), FGFR1OP (ProbeSet 11751329_s_at) / Fold change (Aza/veh), VPS36 (ProbeSet 11739960_a_at) / Fold change (ACY-1035/veh), VPS36 (ProbeSet 11739960_a_at) / RFU SYPL1 (11715823_x_at) / Fold change /veh SYPL1 (11715823_x_at) / RFU IGFBP7 (11715501_s_at) / Fold change /veh IGFBP7 (11715501_s_at) / RFU REEP3 (11722064_at) / Fold change /veh REEP3 (11722064_at) / RFU IGLL1 (11728026_x_at) / Fold change /veh IGLL1 (11728026_x_at): dose or concentration left out as unconfirmed
# Conditions: MV-4-11 cells, 48 hours
compound,measurement,value
Nc1ncn([C@@H]2O[C@H](CO)[C@@H](O)[C@H]2O)c(=O)n1 [azacitidine],Fold change /veh KRTAP10-2 (11738614_at),0.93
